From US12180226B2, “Spirotricycle RIPK1 inhibitors and methods of uses thereof” (Merck Sharp & Dohme LLC, priority 2021, dated 2024)
Structures can show the parent of a compound that is named as a salt.

Target: RIPK1 (recombinant GST-RIPK1 kinase domain, residues 1-327) (Homo sapiens (Human), UniProt Q13546)
Assay: RIPK1-ADP-Glo Enzymatic Assay
Type: biochemical
Settings: ADP-Glo; 25 nM GST-RIPK1, 300 μM ATP; assay lower limit ~25 nM; read-out: RIPK1 V0 Ec50
Summary of the method: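 ADP-Glo luminescence read after 150 min kinase reaction (300 μM ATP, 3 μM dephosphorylated MBP) using 25 nM Sf21-made GST-kinase domain (1-327), preincubated 30 min with compound. HEPES pH 7.3, 1% DMSO; ten-point 1:3 series from 100000 nM, EC50 via four-parameter sigmoidal regression.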

RIPK1 (recombinant GST-RIPK1 kinase domain, residues 1-327), sequence (Q13546 1-327): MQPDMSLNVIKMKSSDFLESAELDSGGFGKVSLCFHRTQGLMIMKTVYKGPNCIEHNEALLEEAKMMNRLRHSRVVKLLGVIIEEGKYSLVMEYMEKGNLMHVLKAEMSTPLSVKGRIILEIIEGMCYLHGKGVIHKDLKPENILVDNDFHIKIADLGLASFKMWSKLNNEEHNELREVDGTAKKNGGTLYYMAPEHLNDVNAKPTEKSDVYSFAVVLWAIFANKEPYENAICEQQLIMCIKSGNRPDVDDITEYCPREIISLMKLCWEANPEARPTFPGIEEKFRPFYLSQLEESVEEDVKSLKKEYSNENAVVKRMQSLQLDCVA

| SMILES | EC50 |
| --- | --- |
| Cc1ccncc1C(=O)N1CCC2(CC1)O[C@@H]1CC[C@@H](c3cc(F)cc(F)c3)N1C2=O [Example 6.51, (5′S,7a′R)-5′-(3,5-difluorophenyl)-1-(4-methylpyridine-3-carbonyl)tetrahydro-3′H-spiro[piperidine-4,2′-pyrrolo[2,1-b] [1,3]oxazol]-3′-one] | 600 nM |
| CC1CC2(CCN1c1ccnc3ccnn13)O[C@@H]1CC[C@@H](c3ccccc3)N1C2=O (stereo partly drawn) [Example 4.247, (4R,5′S,7a′R)-2-methyl-5′-phenyl-1-(pyrazolo[1,5-a]pyrimidin-7-yl)tetrahydro-3′H-spiro[piperidine-4,2′-pyrrolo[2,1-b] [1,3]oxazol]-3′-one] | 86.5 nM |
| O=C1N2[C@@H](CC[C@H]2c2cc(F)cc(F)c2)OC12CCN(c1ccc(C3CCC3)c3ccnn13)CC2 [Example 18.1, (5′S,7a′R)-1-(4-Cyclobutylpyrazolo[1,5-a]pyridin-7-yl)-5′-(3,5-difluorophenyl)tetrahydro-3′H-spiro[piperidine-4,2′-pyrrolo[2,1-b]oxazol]-3′-one, TFA salt] | 159 nM |
| N#CN1CCC2(CC1)O[C@@H]1CC[C@@H](c3cc(F)cc(F)c3)N1C2=O [Example 4.48, (5′S,7a′R)-5′-(3,5-difluorophenyl)-3′-oxotetrahydro-1H,3′H-spiro[piperidine-4,2′-pyrrolo[2,1-b] [1,3]oxazole]-1-carbonitrile] | 150 nM |
| CC(F)(F)c1ccnc(N2CCC3(CC2)O[C@@H]2CC[C@@H](c4ccccc4)N2C3=O)c1 [Example 4.262, (5′S,7a′R)-1-[4-(1,1-difluoroethyl)pyridin-2-yl]-5′-phenyltetrahydro-3′H-spiro[piperidine-4,2′-pyrrolo[2,1-b] [1,3]oxazol]-3′-one] | 256 nM |
| CC(C)OC(=O)c1ccc(N2CCC3(CC2)O[C@@H]2CC[C@@H](c4ccccc4)N2C3=O)nc1 [Example 4.190, propan-2-yl 6-[(5′S,7a′R)-3′-oxo-5′-phenyltetrahydro-1H,3′H-spiro[piperidine-4,2′-pyrrolo[2,1-b] [1,3]oxazol]-1-yl]pyridine-3-carboxylate] | 92.6 nM |
| O=C1N2[C@@H](CC[C@H]2c2cc(F)cc(F)c2)OC12CCN(c1ccnn3ccnc13)CC2 [Example 13.3, (5′S,7a′R)-5′-(3,5-difluorophenyl)-1-(imidazo[1,2-b]pyridazin-8-yl)tetrahydro-3′H-spiro[piperidine-4,2′-pyrrolo[2,1-b]oxazol]-3′-one, TFA salt] | < 25 nM |
| CC1CC2(CCN1c1ccnc3c(F)cnn13)O[C@@H]1CC[C@@H](c3ccccc3)N1C2=O (stereo partly drawn) [Example 4.225, (4R,5′S,7a′R)-1-(3-fluoropyrazolo[1,5-a]pyrimidin-7-yl)-2-methyl-5′-phenyltetrahydro-3′H-spiro[piperidine-4,2′-pyrrolo[2,1-b] [1,3]oxazol]-3′-one] | 31.8 nM |
| O=C1N2[C@@H](CC[C@H]2c2cc(F)cc(F)c2)OC12CCN(c1ncc(F)c3nncn13)CC2 [Example 13.13, (5′S,7a′R)-5′-(3,5-difluorophenyl)-1-(8-fluoro-[1,2,4]triazolo[4,3-c]pyrimidin-5-yl)tetrahydro-3′H-spiro[piperidine-4,2′-pyrrolo[2,1-b]oxazol]-3′-one, TFA salt] | 366 nM |
| O=C1N2[C@@H](CC[C@H]2c2ccccc2)OC12CCN(c1cc(-c3cnn(C(F)F)c3)ncn1)CC2 [Example 10.2, (5′S,7a′R)-1-{6-[1-(difluoromethyl)-1H-pyrazol-4-yl]pyrimidin-4-yl}-5′-phenyltetrahydro-3′H-spiro[piperidine-4,2′-pyrrolo[2,1-b][1,3]oxazol]-3′-one] | < 25 nM |
| COc1ccnc(C(=O)N2CCC3(CC2)O[C@@H]2CC[C@@H](c4cc(F)cc(F)c4)N2C3=O)c1 [Example 6.91, (5′S,7a′R)-5′-(3,5-difluorophenyl)-1-(4-methoxypyridine-2-carbonyl)tetrahydro-3′H-spiro[piperidine-4,2′-pyrrolo[2,1-b] [1,3]oxazol]-3′-one] | 706 nM |
| O=C1N2[C@@H](CC[C@H]2c2ccccc2F)OC12CCN(c1ncnc3ccnn13)CC2 [Example 4.252, (5′S,7a′R)-5′-(2-fluorophenyl)-1-(pyrazolo[1,5-a] [1,3,5]triazin-4-yl)tetrahydro-3′H-spiro[piperidine-4,2′-pyrrolo[2,1-b] [1,3]oxazol]-3′-one] | < 25 nM |
| O=C(c1cnn2c1CSCC2)N1CCC2(CC1)O[C@@H]1CC[C@@H](c3cc(F)cc(F)c3)N1C2=O [Example 6.39, (5′S,7a′R)-5′-(3,5-difluorophenyl)-1-(6,7-dihydro-4H-pyrazolo-[5,1-c][1,4]thiazine-3-carbonyl)tetrahydro-3′H-spiro[piperidine-4,2′-pyrrolo[2,1-b] [1,3]oxazol]-3′-one] | 738 nM |
| O=C1N2[C@@H](CC[C@H]2c2ccccc2)OC12CCN(c1ccc(=O)n(CC3CC3)n1)CC2 [Example 11.8, (5′S,7a′R)-1-[1-(cyclopropylmethyl)-6-oxo-1,6-dihydropyridazin-3-yl]-5′-phenyltetrahydro-3′H-spiro[piperidine-4,2′-pyrrolo[2,1-b][1,3]oxazol]-3′-one] | 215 nM |
| O=C1N2C(=NC13CCN(c1cc(-c4cnn(C(F)F)c4)ncn1)CC3)CC[C@H]2c1cc(F)cc(F)c1 [Example 10.3, (S)-1-(6-(1-(difluoromethyl)-1H-pyrazol-4-yl)pyrimidin-4-yl)-5′-(3,5-difluorophenyl)-6′,7′-dihydro-3′H,5′H-spiro[piperidine-4,2′-pyrrolo[1,2-a]imidazol]-3′-one] | 355 nM |
| N#Cc1ccc(N2CCC3(CC2)C[C@@H]2OC[C@@H](c4ccccc4)N2C3=O)c(F)c1 [Example 11.3, 3-fluoro-4-[(3′R,7a′S)-5′-oxo-3′-phenyltetrahydro-1H,5′H-spiro[piperidine-4,6′-pyrrolo[2,1-b][1,3]oxazol]-1-yl]benzonitrile] | 66.9 nM |
| O=C(c1ncoc1C1CC1)N1CCC2(CC1)O[C@@H]1CC[C@@H](c3cc(F)cc(F)c3)N1C2=O [Example 6.24, (5′S,7a′R)-1-(5-cyclo-propyl-1,3-oxazole-4-carbonyl)-5′-(3,5-difluorophenyl)tetra-hydro-3′H-spiro[piperi-dine-4,2′-pyrrolo[2,1-b][1,3]oxazol]-3′-one] | 32.3 nM |
| O=C1N2[C@@H](CC[C@H]2c2ccccc2)OC12CCN(c1ccc(C3COC3)c3ccnn13)CC2 [Example 18.2, (5′S,7a′R)-1-[4-(oxetan-3-yl)pyrazolo[1,5-a]pyridin-7-yl]-5′-phenyltetrahydro-3′H-spiro[piperidine-4,2′-pyrrolo[2,1-b][1,3]oxazol]-3′-one] | 27.6 nM |
| O=C(c1nnn2ccccc12)N1CCC2(CC1)O[C@@H]1CC[C@@H](c3cc(F)cc(F)c3)N1C2=O [Example 5.66, (5′S,7a′R)-1-([1,2,3]-triazolo-[1,5-a]pyridine-3-carbonyl)-5′-(3,5-difluoro-phenyl)tetrahydro-3′H-spiro[piperidine-4,2′-pyrrolo[2,1-b]oxazol]-3′-one] | 81.1 nM |
| O=C1N2[C@@H](CC[C@H]2c2ccccc2)OC12CCN(c1ncc(C3CC3)cn1)CC2 [Example 11.13, (5′S,7a′R)-1-(5-cyclopropylpyrimidin-2-yl)-5′-phenyltetrahydro-3′H-spiro[piperidine-4,2′-pyrrolo[2,1-b][1,3]oxazol]-3′-one] | 266 nM |
| N#Cc1cc(N2CCC3(CC2)SC2CCC(c4cc(F)cc(F)c4)N2C3=O)ncn1 (stereo not drawn) [Example 4.111, 6-(5′-(3,5-difluorophenyl)-3′-oxotetrahydro-3′H-spiro[piperidine-4,2′-pyrrolo[2,1-b]thiazol]-1-yl)pyrimidine-4-carbonitrile] | 38.1 nM |
| O=C1N2[C@@H](CC[C@H]2c2ccccc2)OC12CCN(c1nnc(C(F)(F)F)s1)CC2 [Example 11.27, (5′S,7a′R)-5′-phenyl-1-[5-(trifluoromethyl)-1,3,4-thiadiazol-2-yl]tetrahydro-3′H-spiro[piperidine-4,2′-pyrrolo[2,1-b][1,3]oxazol]-3′-one] | 757 nM |
| COc1cc(N2CCC3(CC2)O[C@@H]2CC[C@@H](c4cc(F)cc(F)c4)N2C3=O)ncc1C#N [Example 4.43, 6-[(5′S,7a′R)-5′-(3,5-difluorophenyl)-3′-oxotetrahydro-1H,3′H-spiro[piperidine-4,2′-pyrrolo[2,1-b] [1,3]oxazol]-1-yl]-4-methoxypyridine-3-carbonitrile] | < 25 nM |
| O=C1N2[C@@H](CC[C@H]2c2cc(F)cc(F)c2)OC12CCN(c1ccnc3ncnn13)CC2 [Example 4.83, (5′S,7a′R)-1-([1,2,4]triazolo[1,5-a]pyrimidin-7-yl)-5′-(3,5-difluorophenyl)tetrahydro-3′H-spiro[piperidine-4,2′-pyrrolo[2,1-b]oxazol]-3′-one, TFA salt] | 363 nM |
| CC1CN(c2cc(C#N)ncn2)CCC12O[C@@H]1CC[C@@H](c3ccccc3)N1C2=O (stereo partly drawn) [Example 4.236, 6-[(4R,5′S,7a′R)-3-methyl-3′-oxo-5′-phenyltetrahydro-1H,3′H-spiro[piperidine-4,2′-pyrrolo[2,1-b] [1,3]oxazol]-1-yl]pyrimidine-4-carbonitrile] | 50 nM |
| Cc1ncc([C@@H]2CC[C@H]3OC4(CCN(C(=O)c5ccccc5)CC4)C(=O)N32)cc1F [Example 2.1, (5′S,7a′R)-1-benzoyl-5′-(5-fluoro-6-methylpyridin-3-yl)tetrahydro-3′H-spiro[piperidine-4,2′-pyrrolo[2,1-b]oxazol]-3′-one, TFA salt.] | 76.5 nM |
| O=C1N2[C@@H](CC[C@H]2c2cnccn2)OC12CCN(c1ccnc3c(F)cnn13)CC2 [Example 4.143, (5′S,7a′R)-1-(3-fluoropyrazolo[1,5-a]pyrimidin-7-yl)-5′-(pyrazin-2-yl)tetrahydro-3′H-spiro[piperidine-4,2′-pyrrolo[2,1-b] [1,3]oxazol]-3′-one] | < 25 nM |
